Structures can show the parent of a compound that is named as a salt.

The target in this experiment is T1, BACE-2 (Homo sapiens, UniProt Q9Y5Z0).
T1 construct: Recombinant BACE-2 (extracellular domain, expressed in baculovirus and purified using standard methods); made in house
T1 sequence (Q9Y5Z0 63-473 limits assumed): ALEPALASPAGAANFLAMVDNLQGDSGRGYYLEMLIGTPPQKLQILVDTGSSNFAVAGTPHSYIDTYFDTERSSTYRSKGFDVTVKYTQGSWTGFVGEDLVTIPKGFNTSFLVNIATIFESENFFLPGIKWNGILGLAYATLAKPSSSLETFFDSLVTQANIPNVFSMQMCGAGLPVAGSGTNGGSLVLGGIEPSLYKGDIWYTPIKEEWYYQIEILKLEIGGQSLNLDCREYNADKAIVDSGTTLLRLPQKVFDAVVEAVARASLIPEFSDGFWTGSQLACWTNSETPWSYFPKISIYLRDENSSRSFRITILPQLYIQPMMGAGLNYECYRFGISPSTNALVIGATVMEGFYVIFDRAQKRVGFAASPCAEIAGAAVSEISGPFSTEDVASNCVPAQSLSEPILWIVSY
Briefly: assay for inhibition of BACE-2. It counts as biochemical.
For `CC1(c2cccc(NC(=O)c3ccc(C(F)(F)F)cn3)c2)COCC(N)=N1` (stereo not shown) [Example 22, 5-Trifluoromethyl-pyridine-2-carboxylic acid [3-(5-amino-3-methyl-3,6-dihydro-2H-[1,4]oxazin-3-yl)-phenyl]-amide hydrochloride], it took 1.5 µM to reach half-maximal inhibition (IC50).
As for `CC1(c2cccc(NC(=O)c3coc(C(F)(F)F)c3)c2)COCC(N)=N1` (stereo not shown) [Example 23, 5-Trifluoromethyl-furan-3-carboxylic acid [3-(5-amino-3-methyl-3,6-dihydro-2H-[1,4]oxazin-3-yl)-phenyl]-amide hydrochloride], the figure is > 10 µM; as for `CC1(c2cccc(NC(=O)c3ccc(Br)cc3)c2)COCC(N)=N1` (stereo not shown) [Example 24, N-[3-(5-Amino-3-methyl-3,6-dihydro-2H-[1,4]oxazin-3-yl)-phenyl]-4-bromo-benzamide hydrochloride], 1.07 µM; as for `CC1(c2cccc(NC(=O)C3CCCCC3)c2)COCC(N)=N1` (stereo not shown) [Example 25, Cyclohexanecarboxylic acid [3-(5-amino-3-methyl-3,6-dihydro-2H-[1,4]oxazin-3-yl)-phenyl]-amide hydrochloride], > 10 µM.
As for `CC1(c2cccc(NC(=O)C3CCC(F)(F)CC3)c2)COCC(N)=N1` (stereo not shown) [Example 26, 4,4-Difluoro-cyclohexanecarboxylic acid [3-(5-amino-3-methyl-3,6-dihydro-2H-[1,4]oxazin-3-yl)-phenyl]-amide hydrochloride], the figure is > 10 µM; as for `Cc1ccc(C(=O)Nc2cccc(C3(C)COCC(N)=N3)c2)nc1` (stereo not shown) [Example 27, 5-Methyl-pyridine-2-carboxylic acid [3-(5-amino-3-methyl-3,6-dihydro-2H-[1,4]oxazin-3-yl)-phenyl]-amide hydrochloride], 0.374 µM; as for `CC1(c2cccc(NC(=O)c3cccnc3)c2)COCC(N)=N1` (stereo not shown) [Example 28, N-[3-(5-Amino-3-methyl-3,6-dihydro-2H-[1,4]oxazin-3-yl)-phenyl]-nicotinamide hydrochloride], > 10 µM.
Under `Cc1cc(Br)cnc1C(=O)Nc1cccc([C@]2(C)COCC(=N)N2)c1` [Example 29, 5-Bromo-3-methyl-pyridine-2-carboxylic acid [3-((R)-5-amino-3-methyl-3,6-dihydro-2H-[1,4]oxazin-3-yl)-phenyl]-amide hydrochloride] stands 0.021 µM; under `COc1ccc(C(=O)Nc2cccc([C@]3(C)COCC(N)=N3)c2)nc1` [Example 30, 5-Methoxy-pyridine-2-carboxylic acid [3-((R)-5-amino-3-methyl-3,6-dihydro-2H-[1,4]oxazin-3-yl)-phenyl]-amide hydrochloride], 0.367 µM.
On to `NC1=NC(CF)(c2cccc(NC(=O)c3ccc(Br)cn3)c2)COC1` (stereo not shown) [Example 31, 5-Bromo-pyridine-2-carboxylic acid [3-(5-amino-3-fluoromethyl-3,6-dihydro-2H-[1,4]oxazin-3-yl)-phenyl]-amide], for which inhibition was half-maximal at 0.13 µM (IC50). Against the preceding molecule, the IC50 is about 2.8-fold lower.
Under `NC1=NC(CF)(c2cc(Cl)cc(NC(=O)c3ccc(Br)cn3)c2)COC1` (stereo not shown) [Example 32] stands 1.02 µM.
As for `NC1=N[C@](CF)(c2cccc(NC(=O)c3ccc(Br)cn3)c2)COC1` [Example 33, 5-Bromo-pyridine-2-carboxylic acid [3-((R)-5-amino-3-fluoromethyl-3,6-dihydro-2H-[1,4]oxazin-3-yl)-phenyl]-amide], the figure is 0.09 µM.
The molecule `NC1=NC(c2cccc(NC(=O)c3ccc(Br)cn3)c2)(C(F)F)COC1` (stereo not shown) [Example 34, 5-Bromo-pyridine-2-carboxylic acid [3-(5-amino-3-difluoromethyl-3,6-dihydro-2H-[1,4]oxazin-3-yl)-phenyl]-amide hydrochloride] came in with an IC50 of 0.345 µM.
As for `NC1=NC(c2cccc(NC(=O)c3ccc(Cl)cn3)c2)(C(F)F)COC1` (stereo not shown) [Example 35], the figure is 0.139 µM; as for `N#Cc1ccc(C(=O)Nc2cccc(C3(C(F)F)COCC(N)=N3)c2)nc1` (stereo not shown) [Example 36], 0.91 µM; as for `Cc1cc(Br)cnc1C(=O)Nc1cccc(C2(C(F)F)COCC(N)=N2)c1` (stereo not shown) [Example 37], 0.058 µM.
As for `Cc1cnc(C(=O)Nc2cccc(C3(C(F)F)COCC(N)=N3)c2)cn1` (stereo not shown) [Example 38], it took 9.01 µM to reach half-maximal inhibition (IC50).
As for `NC1=NC(c2cccc(NC(=O)c3ccc(C(F)(F)F)cn3)c2)(C(F)F)COC1` (stereo not shown) [Example 39], the figure is 2.97 µM; as for `NC1=NC(c2cccc(NC(=O)c3ncc(C(F)(F)F)cc3Cl)c2)(C(F)F)COC1` (stereo not shown) [Example 40], 2.45 µM.
Take `Cc1cc(Cl)cnc1C(=O)Nc1cccc(C2(C(F)F)COCC(N)=N2)c1` (stereo not shown) [Example 41]: the half-maximal inhibitory concentration (IC50) was found to be 0.028 µM.
Molecule `NC1=NC(c2cc(NC(=O)c3ccc(Br)cn3)ccc2F)(C(F)F)COC1` (stereo not shown) [Example 42, 5-Bromo-pyridine-2-carboxylic acid [3-(5-amino-3-difluoromethyl-3,6-dihydro-2H-[1,4]oxazin-3-yl)-4-fluoro-phenyl]-amide hydrochloride] registered an IC50 of 0.053 µM.
As for `NC1=NC(c2cc(NC(=O)c3ccc(Cl)cn3)ccc2F)(C(F)F)COC1` (stereo not shown) [Example 43], the figure is 0.028 µM; as for `Cc1cc(Cl)cnc1C(=O)Nc1ccc(F)c([C@]2(C(F)F)COCC(N)=N2)c1` [Example 44], 0.005 µM.
Under `Cc1cc(Br)cnc1C(=O)Nc1ccc(F)c([C@]2(C(F)F)COCC(N)=N2)c1` [Example 45] stands 0.01 µM.
Molecule `NC1=N[C@@](c2cc(NC(=O)c3ncc(C(F)(F)F)cc3Cl)ccc2F)(C(F)F)COC1` [Example 46] returned an IC50 of 0.13 µM. Against the preceding molecule, the IC50 is about 13-fold higher.
As for `NC1=N[C@@](c2cc(NC(=O)c3ccc(C(F)(F)F)cn3)ccc2F)(C(F)F)COC1` [Example 47], the figure is 0.251 µM; as for `Cc1cnc(C(=O)Nc2ccc(F)c([C@]3(C(F)F)COCC(N)=N3)c2)cn1` [Example 48], 0.511 µM; as for `COc1ccc(C(=O)Nc2cccc([C@]3(C)CO[C@@](C)(C(F)(F)F)C(N)=N3)c2)nc1` [Example 67], 0.027 µM.
Regarding `C[C@@]1(c2cc(NC(=O)c3ccc(Br)cn3)ccc2F)CO[C@@](C)(C(F)(F)F)C(N)=N1` [Example 68], inhibition was half-maximal at 0.003 µM (IC50).
As for `COc1ccc(C(=O)Nc2ccc(F)c([C@]3(C)CO[C@@](C)(C(F)(F)F)C(N)=N3)c2)nc1` [Example 69], the figure is 0.001 µM.
As for `C[C@@]1(c2cc(NC(=O)c3ncc(C#N)cn3)ccc2F)CO[C@@](C)(C(F)(F)F)C(N)=N1` [Example 70], the figure is 0.004 µM; as for `C[C@@]1(c2cc(NC(=O)c3ncc(Br)cn3)ccc2F)CO[C@@](C)(C(F)(F)F)C(N)=N1` [Example 71, 5-Bromo-pyrimidine-2-carboxylic acid [3-((3R,6R)-5-amino-3,6-dimethyl-6-trifluoromethyl-3,6-dihydro-2H-[1,4]oxazin-3-yl)-4-fluoro-phenyl]-amide hydrochloride], 0.003 µM; as for `C[C@@]1(c2cc(NC(=O)c3ccc(C#N)cn3)ccc2F)CO[C@@](C)(C(F)(F)F)C(N)=N1` [Example 73], 0.027 µM.
The molecule `COCCOc1cnc(C(=O)Nc2ccc(F)c([C@]3(C)CO[C@@](C)(C(F)(F)F)C(N)=N3)c2)cn1` [Example 74] showed an IC50 of 0.514 µM.
Take `CC1(C)OCC(c2cc(NC(=O)c3ccc(C#N)cn3)ccc2F)(C(F)F)N=C1N` (stereo not shown) [Example 79, 5-Cyano-pyridine-2-carboxylic acid[3-(5-amino-3-difluoromethyl-6,6-dimethyl-3,6-dihydro-2H-[1,4]oxazin-3-yl)-4-fluoro-phenyl]-amide]: the IC50 came out at 0.316 µM.
The molecule `CC1(C)OCC(c2cc(NC(=O)c3ccc(Br)cn3)ccc2F)(C(F)F)N=C1N` (stereo not shown) [Example 80] came in with a concentration for half-maximal inhibition (IC50) of 0.064 µM. Compared with the last molecule, the IC50 is about 4.9-fold lower.
`NC1=NC(c2cc(NC(=O)c3ccc(Br)cn3)c(F)cc2F)(C(F)F)COC1` (stereo not shown) [Example 81] yielded an IC50 of 4.29 µM.
Under `N#Cc1ccc(C(=O)Nc2cc(C3(C(F)F)COCC(N)=N3)c(F)cc2F)nc1` (stereo not shown) [Example 82] stands 1.23 µM.
The molecule `COc1cc(Br)cnc1C(=O)Nc1cc(C2(C(F)F)COCC(N)=N2)c(F)cc1F` (stereo not shown) [Example 83] came in with an IC50 of 5.88 µM.
Under `NC1=NC(c2cc(NC(=O)c3ncc(Br)cc3O)c(F)cc2F)(C(F)F)COC1` (stereo not shown) [Example 84] stands 3.44 µM; under `NC1=N[C@](CF)(c2cc(NC(=O)c3ccc(Cl)cn3)ccc2F)COC1` [Example 85, 5-Chloro-pyridine-2-carboxylic acid [3-((R)-5-amino-3-fluoromethyl-3,6-dihydro-2H-[1,4]oxazin-3-yl)-4-fluoro-phenyl]-amide hydrochloride], 0.008 µM; under `NC1=NC(CF)(c2cc(NC(=O)c3ccc(Br)cn3)ccc2F)COC1` (stereo not shown) [Example 86], 0.032 µM.
Under `NC1=NC(CF)(c2cc(NC(=O)c3ccc(Cl)cn3)ccc2F)COC1` (stereo not shown) [Example 87] stands 0.025 µM.
Under `NC1=NC(CF)(c2cc(NC(=O)c3ncc(Cl)cc3Cl)ccc2F)COC1` (stereo not shown) [Example 88] stands 0.012 µM.
`N#Cc1ccc(C(=O)Nc2ccc(F)c(C3(CF)COCC(N)=N3)c2)nc1` (stereo not shown) [Example 89] displayed an IC50 of 0.152 µM.
`Cc1cc(Br)cnc1C(=O)Nc1ccc(F)c(C2(CF)COCC(N)=N2)c1` (stereo not shown) [Example 90] registered an IC50 of 0.011 µM.
`Cc1cc(Br)cnc1C(=O)Nc1ccc(F)c([C@]2(CF)COCC(N)=N2)c1` [Example 91]: the IC50 was determined as 0.006 µM.
As for `Cc1cc(Cl)cnc1C(=O)Nc1ccc(F)c([C@]2(CF)COCC(N)=N2)c1` [Example 92], the figure is 0.0004 µM; as for `Cl.[2H]c1nc(C(=O)Nc2ccc(F)c([C@]3(CF)COCC(N)=N3)c2)c(C([2H])([2H])[2H])c([2H])c1Cl` [Example 93], 0.0014 µM.

As usually defined, the IC50 is the concentration that inhibits the measured activity by half. Low readings indicate inhibition by little substance, high ones a need for much substance.

For the origin of these results see patent publication US20140128385A1 (NOVARTIS AG, priority 2011, published 2014).
